From patent publication US20220257532A1 (priority 2017, published 2022)
Entries after “also recorded” stand apart in the source; their conditions may differ.

Molecular target: BACE1 (β-secretase, recombinant human enzyme) (Homo sapiens, UniProt P56817)
Assay: biochemical
Assay type: biochemical
Details: Dixon plot and Lineweaver plot
Protocol: A BACE1 fluorescence resonance energy transfer (FRET) assay kit (β-secretase, recombinant human enzyme) was purchased from Pan Vera Co. (Madison, Wis., USA).
BACE1 is an enzyme promotive of the production of β-amyloid, which destroys neurons. In order to examine the effects on the compounds of Table 1 on the activity of BACE1, IC(inhibition concentrations)50 values were determined by measuring BACE1 activity in vitro according to Experimental Methods.

Chain of BACE1 (β-secretase, recombinant human enzyme) (P56817 46-501): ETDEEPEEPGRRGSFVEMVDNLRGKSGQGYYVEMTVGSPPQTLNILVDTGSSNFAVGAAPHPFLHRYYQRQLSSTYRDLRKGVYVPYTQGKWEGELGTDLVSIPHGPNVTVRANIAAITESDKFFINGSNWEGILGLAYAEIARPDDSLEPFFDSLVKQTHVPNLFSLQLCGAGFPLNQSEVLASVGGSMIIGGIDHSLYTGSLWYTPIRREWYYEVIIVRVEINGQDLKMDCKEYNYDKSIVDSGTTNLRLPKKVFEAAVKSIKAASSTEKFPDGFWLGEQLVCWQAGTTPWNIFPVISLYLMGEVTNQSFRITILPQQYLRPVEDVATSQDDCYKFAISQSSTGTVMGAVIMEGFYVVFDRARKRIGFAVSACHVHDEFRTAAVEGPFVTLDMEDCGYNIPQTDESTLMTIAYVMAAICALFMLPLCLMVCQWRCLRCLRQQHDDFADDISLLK

Row | SMILES | Inhibition type BACE1
1 | Cc1cc2c(c(C)c1CCO[C@@H]1OC(CO)[C@@H](O)[C@H](O)C1O)C(=O)[C@H](C)C2 (stereo partly drawn) [Compound 14, (2R)-pteroside B] | noncompetitive
2 | Cc1cc2c(c(C)c1CCO[C@@H]1OC(CO)[C@@H](O)[C@H](O)C1O)C(=O)[C@H](C)[C@H]2O (stereo partly drawn) [Compound 16, (2R,3R)-pteroside C] | mixed
3 | Cc1cc2c(c(C)c1CCO[C@@H]1OC(CO)[C@@H](O)[C@H](O)C1O)C(=O)C(C)(C)[C@H]2O (stereo partly drawn) [Compound 17, (3S)-pteroside D] | mixed

Same assay, conditions: positive control quercetin

Row | SMILES | BACE1 IC50 compared with quercetin, in words
4 | Cc1cc2c(c(C)c1CCO)C(=O)[C@@H](C)[C@@H]2O [Compound 6, (2S,3S)-pterosin C] | lower than or similar to that of quercetin
5 | Cc1cc2c(c(C)c1CCO[C@@H]1OC(CO)[C@@H](O)[C@H](O)C1O)C(=O)[C@H](C)[C@H]2O (stereo partly drawn) [Compound 16, (2R,3R)-pteroside C] | lower than or similar to that of quercetin
6 | Cc1cc2c(c(C)c1CCO[C@@H]1OC(CO)[C@@H](O)[C@H](O)C1O)C(=O)C(C)(C)[C@H]2O (stereo partly drawn) [Compound 17, (3S)-pteroside D] | lower than or similar to that of quercetin

Molecular target: T1, butyrylcholinesterase (BChE, EC3.1.1.8) (Equus caballus, UniProt P81908)
T1 construct: horse serum butyrylcholinesterase (BChE, EC3.1.1.8); purchased Sigma-Aldrich Co. (St. Louis, Mo., USA); host or cells: horse serum
Assay: In vitro cholinesterase activity assay (Ellman) and enzyme kinetics, BChE
Assay type: biochemical
Details: Dixon plot and Lineweaver plot
Protocol: (§1) The reaction started with the addition of 10 μL of DTNB and 10 μL of Ach or Bch.
(§2) Briefly, the basis for this assay is the hydrolysis of acetylthiocholine by acetylcholinesterase, producing thiocholine that reacts with DTNB. […] Degrees of inhibition were calculated according to […] wherein E and S represent enzyme activities in the presence and absence of a test sample, respectively.
(§3) The compounds of Table 1 were evaluated for anti-Alzheimer activity. In this regard, inhibitory activity against AChE (acetylcholinesterase) and BChE (butyrylcholinesterase), which lyse acetylcholine in the central nervous system, was measured according to the Experimental Method to calculate IC(inhibition concentrations)50 values.

T1 sequence (P81908 whole entry): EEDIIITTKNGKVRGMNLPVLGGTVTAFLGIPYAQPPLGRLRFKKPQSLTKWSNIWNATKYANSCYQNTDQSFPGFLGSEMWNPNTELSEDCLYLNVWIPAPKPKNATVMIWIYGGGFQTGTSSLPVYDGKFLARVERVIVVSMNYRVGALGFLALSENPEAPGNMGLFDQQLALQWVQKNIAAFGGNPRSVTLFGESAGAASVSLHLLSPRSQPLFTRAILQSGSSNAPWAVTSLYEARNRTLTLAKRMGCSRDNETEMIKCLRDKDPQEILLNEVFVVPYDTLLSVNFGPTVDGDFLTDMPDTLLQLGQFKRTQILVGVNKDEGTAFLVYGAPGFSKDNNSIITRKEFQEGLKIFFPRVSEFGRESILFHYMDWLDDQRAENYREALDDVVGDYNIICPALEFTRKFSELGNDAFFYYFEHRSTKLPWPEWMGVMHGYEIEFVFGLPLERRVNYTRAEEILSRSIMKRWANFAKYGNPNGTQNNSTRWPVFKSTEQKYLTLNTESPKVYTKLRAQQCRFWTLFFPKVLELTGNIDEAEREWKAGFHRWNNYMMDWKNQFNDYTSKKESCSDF

Row | SMILES | Inhibition type Butyrylcholinesterase
7 | Cc1cc2c(c(C)c1CCO[C@@H]1OC(CO)[C@@H](O)[C@H](O)C1O)C(=O)[C@H](C)C2 (stereo partly drawn) [Compound 14, (2R)-pteroside B] | mixed

Same assay, conditions: among the compounds tested

Row | SMILES | BChE inhibition / IC50 rank, in words
8 | Cc1cc2c(c(C)c1CCO)C(=O)[C@@H](C)[C@@H]2O [Compound 6, (2S,3S)-pterosin C] | excellent
9 | Cc1cc2c(c(C)c1CCO[C@@H]1OC(CO)[C@@H](O)[C@H](O)C1O)C(=O)[C@H](C)C2 (stereo partly drawn) [Compound 14, (2R)-pteroside B] | excellent
10 | Cc1cc2c(c(C)c1CCO[C@@H]1OC(CO)[C@@H](O)[C@H](O)C1O)C(=O)[C@H](C)[C@H]2O (stereo partly drawn) [Compound 16, (2R,3R)-pteroside C] | lowest
11 | Cc1cc2c(c(C)c1CCO[C@@H]1OC(CO)[C@@H](O)[C@H](O)C1O)C(=O)C(C)(C)C2 (stereo partly drawn) [Compound 20, pteroside Z] | excellent

Same assay, conditions: concentrations up to 125 μM; read-out: IC50 Butyrylcholine esterase Mean ± SEM

Row | SMILES | IC50
12 | Cc1cc2c(c(C)c1CCO[C@@H]1OC(CO)[C@@H](O)[C@H](O)C1O)C(=O)[C@](C)(CO)C2 (stereo partly drawn) [Compound 12, (2S)-pteroside A] | 199 ± 0.25 µM
13 | Cc1cc2c(c(C)c1CCO[C@@H]1OC(CO)[C@@H](O)[C@H](O)C1O)C(=O)[C@H](C)C2 (stereo partly drawn) [Compound 14, (2R)-pteroside B] | 17 µM
14 | Cc1cc2c(c(C)c1CCO[C@@H]1OC(CO)[C@@H](O)[C@H](O)C1O)C(=O)[C@@H](C)[C@H]2O (stereo partly drawn) [Compound 15, (2S,3R)-pteroside C] | 12 ± 0.14 µM

Same assay, conditions: ratio of IC50 BChE/AChE

Row | SMILES | SI selectivity index (BChE/AChE)
15 | Cc1cc2c(c(C)c1CCO[C@@H]1OC(CO)[C@@H](O)[C@H](O)C1O)C(=O)[C@](C)(O)C2 (single isomer, unassigned; (-)) [Compound 18, (−)-pteroside N] | 1.7
16 | Cc1cc2c(c(C)c1CCO[C@@H]1OC(CO)[C@@H](O)[C@H](O)C1O)C(=O)[C@@H](C)[C@H]2O (stereo partly drawn) [Compound 15, (2S,3R)-pteroside C] | 1.4
17 | Cc1cc2c(c(C)c1CCO[C@@H]1OC(CO)[C@@H](O)[C@H](O)C1O)C(=O)[C@H](C)[C@H]2O (stereo partly drawn) [Compound 16, (2R,3R)-pteroside C] | 1.4
18 | Cc1cc2c(c(C)c1CCO[C@@H]1OC(CO)[C@@H](O)[C@H](O)C1O)C(=O)C(C)(C)[C@H]2O (stereo partly drawn) [Compound 17, (3S)-pteroside D] | 0.70
19 | Cc1c(CCO[C@@H]2OC(CO)[C@@H](O)[C@H](O)C2O)c(CO)cc2c1C(=O)[C@@H](C)C2 (stereo partly drawn) [Compound 19, (2S)-pteroside P] | 0.57
20 | Cc1cc2c(c(C)c1CCO[C@@H]1OC(CO)[C@@H](O)[C@H](O)C1O)C(=O)C(C)(C)C2 (stereo partly drawn) [Compound 20, pteroside Z] | 0.24

Molecular target: T2, acetylcholinesterase (AChE, EC3.1.1.7) (Electrophorus electricus, UniProt O42275)
T2 construct: purchased Sigma-Aldrich Co. (St. Louis, Mo., USA)
Assay: In vitro cholinesterase activity assay (Ellman) and enzyme kinetics, AChE
Assay type: biochemical
Details: Dixon plot and Lineweaver plot
Protocol: as §1, §2, §3

T2 sequence (O42275 24-633): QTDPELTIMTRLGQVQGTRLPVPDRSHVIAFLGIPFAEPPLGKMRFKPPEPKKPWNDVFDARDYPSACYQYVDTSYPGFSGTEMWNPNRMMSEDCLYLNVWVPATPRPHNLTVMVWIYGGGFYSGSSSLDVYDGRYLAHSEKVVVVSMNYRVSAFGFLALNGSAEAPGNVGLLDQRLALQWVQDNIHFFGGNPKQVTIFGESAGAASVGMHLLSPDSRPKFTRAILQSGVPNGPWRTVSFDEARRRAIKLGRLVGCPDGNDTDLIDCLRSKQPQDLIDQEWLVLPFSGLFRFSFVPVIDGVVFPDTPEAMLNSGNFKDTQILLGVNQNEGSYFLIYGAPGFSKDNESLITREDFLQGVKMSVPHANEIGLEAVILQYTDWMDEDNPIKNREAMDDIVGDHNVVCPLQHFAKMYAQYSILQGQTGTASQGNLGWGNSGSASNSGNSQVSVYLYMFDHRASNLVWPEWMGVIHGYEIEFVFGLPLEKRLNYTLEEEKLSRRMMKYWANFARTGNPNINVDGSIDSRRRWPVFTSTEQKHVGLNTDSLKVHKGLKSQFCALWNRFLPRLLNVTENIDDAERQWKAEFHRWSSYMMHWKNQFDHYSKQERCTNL

Row | SMILES | Inhibition type Acetylcholinesterase
21 | Cc1cc2c(c(C)c1CCO[C@@H]1OC(CO)[C@@H](O)[C@H](O)C1O)C(=O)[C@H](C)C2 (stereo partly drawn) [Compound 14, (2R)-pteroside B] | mixed

Same assay, conditions: among the compounds tested

Row | SMILES | AChE inhibition / IC50 rank, in words
22 | Cc1cc2c(c(C)c1CCO[C@@H]1OC(CO)[C@@H](O)[C@H](O)C1O)C(=O)[C@H](C)C2 (stereo partly drawn) [Compound 14, (2R)-pteroside B] | lowest; also recorded: excellent
23 | Cc1cc2c(c(C)c1CCO[C@@H]1OC(CO)[C@@H](O)[C@H](O)C1O)C(=O)[C@H](C)[C@H]2O (stereo partly drawn) [Compound 16, (2R,3R)-pteroside C] | excellent

Same assay, conditions: concentrations up to 125 μM; read-out: IC50 Acetylcholine esterase Mean ± SEM

Row | SMILES | IC50
24 | Cc1cc2c(c(C)c1CCO[C@@H]1OC(CO)[C@@H](O)[C@H](O)C1O)C(=O)[C@@H](C)[C@H]2O (stereo partly drawn) [Compound 15, (2S,3R)-pteroside C] | 9.57 ± 0.32 µM
